The source of these data is patent publication US20180325889A1, “IMMUNOREGULATORY AGENTS” (FLEXUS BIOSCIENCES, INC., priority 2014, published 2018).

A value given as a limit tells only on which side of the number the result lay.

The target in the assay is T1, human IDO1/HEK293 cells (Homo sapiens, UniProt P14902).
T1 construct: expressed in transfected cells
T1 sequence (P14902 whole entry): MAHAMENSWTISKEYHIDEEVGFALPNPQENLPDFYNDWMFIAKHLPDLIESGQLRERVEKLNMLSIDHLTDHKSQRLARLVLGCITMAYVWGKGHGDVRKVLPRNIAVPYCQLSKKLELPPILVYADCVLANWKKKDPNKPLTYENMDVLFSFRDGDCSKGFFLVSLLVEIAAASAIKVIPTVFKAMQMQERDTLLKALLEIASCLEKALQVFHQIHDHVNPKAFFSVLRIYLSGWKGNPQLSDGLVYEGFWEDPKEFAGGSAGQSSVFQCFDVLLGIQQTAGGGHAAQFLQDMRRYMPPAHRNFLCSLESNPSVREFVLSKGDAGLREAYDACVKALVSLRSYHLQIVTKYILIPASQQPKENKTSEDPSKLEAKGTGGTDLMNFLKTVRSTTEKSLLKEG
Description: HEK Human IDO-1 cell-based IDO inhibition assay (kynurenine production). To be noted: HEK293 cells stably expressing human IDO1, 20 hours incubation, absorbance at 490 nm; read-out: HEK Human IDO-1 Bio Activity (IDO IC50). Here is the method:
They were cultured in medium (DMEM with 10% FBS) containing 1 mg/ml G418 for two weeks.
The human IDO1/HEK293 cells were seeded at 10,000 cells per 50 μL per well with RPMI/phenol red free media contains 10% FBS in a 384-well black wall clear bottom tissue culture plate (Matrix Technologies LLC) 100 nL of certain concentration of compound was then added to each well using ECHO liquid handling systems. The cells were incubated for 20 hours in 37° C. incubator with 5% CO2.
The compound treatments were stopped by adding trichloroacetic acid (Sigma-Aldrich) to a final concentration at 0.2%. The cell plate was further incubated at 50° C. for 30 minute. The equal volume supernatant (20 μL) and 0.2% (w/v) Ehrlich reagent (4-dimethylaminobenzaldehyde, Sigma-Aldrich) in glacial acetic acid were mixed in a new clear bottom 384-well plate. This plate was then incubated at room temperature for 30 minute. The absorbance at 490 nm was measured on Envision plate reader.
Broadly, the IC50 is the midpoint of a concentration-inhibition curve. For the compound `C[C@@H](NC(=O)c1cc(Cl)cc(Cl)c1)[C@H]1CC[C@@H](c2ccnc3ccc(F)cc32)CC1` [Example 66, 3,5-dichloro-N-((R)-1-((1s,4S)-4-(6-fluoroquinolin-4-yl)cyclohexyl)ethyl)benzamide], the IC50 was less than 50 nM. Consider `C[C@@H](NC(=O)c1ccccn1)[C@H]1CC[C@@H](c2ccnc3ccc(F)cc32)CC1` [Example 67, N-((R)-1-((1s,4S)-4-(6-fluoroquinolin-4-yl)cyclohexyl)ethyl)picolinamide], for which the IC50 is less than 50 nM.

For `COc1ccc(C(=O)N[C@H](C)[C@H]2CC[C@@H](c3ccnc4ccc(F)cc43)CC2)cc1` [Example 68, N-((R)-1-((1s,4S)-4-(6-fluoroquinolin-4-yl)cyclohexyl)ethyl)-4-methoxybenzamide], the IC50 is less than 50 nM. As to `C[C@@H](NC(=O)c1ccccc1-c1ccccc1)[C@H]1CC[C@@H](c2ccnc3ccc(F)cc32)CC1` [Example 69, N-((R)-1-((1s,4S)-4-(6-fluoroquinolin-4-yl)cyclohexyl)ethyl)-[1,1′-biphenyl]-2-carboxamide], the IC50 is less than 50 nM. `C[C@@H](NC(=O)c1ccc(-c2ccccc2)cc1)[C@H]1CC[C@@H](c2ccnc3ccc(F)cc32)CC1` [Example 70, N—((R)-1-((1s,4S)-4-(6-fluoroquinolin-4-yl)cyclohexyl)ethyl)-[1,1′-biphenyl]-4-carboxamide]: the IC50 was less than 50 nM. `CCC(NC(=O)c1ccc(Cl)cc1)[C@H]1CC[C@H](Oc2ccnc3c(C(F)(F)F)cccc23)CC1` (stereo partly drawn) [Example 72, 4-Chloro-N-(1-((trans)-4-((8-(trifluoromethyl)quinolin-4-yl)oxy)cyclohexyl)propyl)benzamide]: the concentration for half-maximal inhibition (IC50) is less than 2000 nM.

Consider `O=C(Nc1ccc(Cl)cc1)[C@H]1CC[C@H](c2ccnc3ccc(F)cc32)CC1` [Example 75, (trans)-N-(4-Chlorophenyl)-4-(6-fluoroquinolin-4-yl)cyclohexanecarboxamide], for which the IC50 is less than 250 nM. As to `O=C(Nc1ccc(Cl)cc1)[C@H]1CC[C@@H](c2ccnc3ccc(F)cc32)CC1` [Example 76, (cis)-N-(4-Chlorophenyl)-4-(6-fluoroquinolin-4-yl)cyclohexanecarboxamide], the half-maximal inhibitory concentration (IC50) was less than 2000 nM.

For `CCC(NC(=O)c1ccc(Cl)cc1)[C@H]1CC[C@@H](Oc2ccnc3ccccc23)CC1` (stereo partly drawn) [Example 80, 4-Chloro-N-(1-(cis-4-(quinolin-4-yloxy)cyclohexyl)propyl)benzamide], the IC50 is less than 2000 nM. For the compound `O=C(Nc1ccc(-c2ccccc2)cc1)N1CCN(c2ccnc3ccc(F)cc23)CC1` [Example 84, N-([1,1′-Biphenyl]-4-yl)-4-(6-fluoroquinolin-4-yl)piperazine-1-carboxamide], the IC50 is less than 2000 nM. As for `Cc1ccc(C(=O)NCC2CCN(c3ccnc4ccc(F)cc34)CC2)cc1` [Example 86, N-((1-(6-Fluoroquinolin-4-yl)piperidin-4-yl)methyl)-4-methylbenzamide], the figure is less than 250 nM. With `O=C(NCC1CCN(c2ccnc3ccc(F)cc23)CC1)c1ccc(Cl)c(Cl)c1` [Example 87, 3,4-Dichloro-N-((1-(6-fluoroquinolin-4-yl)piperidin-4-yl)methyl)benzamide], the IC50 was less than 250 nM. As for `O=C(NCC1CCN(c2ccnc3ccc(F)cc23)CC1)c1ccc(Cl)cc1` [Example 88], the IC50 was less than 2000 nM.

Turning to `O=C(NCC1CCN(c2ccnc3ccc(F)cc23)CC1)c1ccc(F)cc1` [Example 89], the IC50 is less than 250 nM. As to `O=C(NCC1CCN(c2ccnc3ccc(F)cc23)CC1)c1cccc(Cl)c1` [Example 90], the IC50 was less than 2000 nM.

`Cc1ccc(NC(=O)NC2CCN(c3ccnc4ccc(F)cc34)CC2)cc1` [Example 91, 1-(1-(6-Fluoroquinolin-4-yl)piperidin-4-yl)-3-(p-tolyl)urea]: the IC50 was less than 250 nM.

For the compound `O=C(Nc1ccc(Cl)cc1F)NC1CCN(c2ccnc3ccc(F)cc23)CC1` [Example 92, 1-(4-Chloro-2-fluorophenyl)-3-(1-(6-fluoroquinolin-4-yl)piperidin-4-yl)urea], the IC50 is less than 2000 nM. As for `O=C(Nc1ccc(F)cc1)NC1CCN(c2ccnc3ccc(F)cc23)CC1` [Example 93, 1-(4-Fluorophenyl)-3-(1-(6-fluoroquinolin-4-yl)piperidin-4-yl)urea], the figure is less than 2000 nM; as for `COc1ccc(CN[C@H]2CC[C@H](c3ccccc3)CC2)cc1` [Example 97, trans-N-(4-Methoxybenzyl)-4-phenylcyclohexanamine], less than 250 nM; as for `O=C(Nc1ccc(Cl)cc1)N[C@H]1CC[C@H](c2ccnc3ccc(F)cc32)CC1` [Example 119, 1-(4-Chlorophenyl)-3-(trans-4-(6-fluoroquinolin-4-yl)cyclohexyl)urea], less than 50 nM. As to `O=C(Nc1ccc(Cl)cc1F)N[C@H]1CC[C@H](c2ccnc3ccc(F)cc32)CC1` [Example 120, 1-(4-chloro-2-fluorophenyl)-3-(trans-4-(6-fluoroquinolin-4-yl)cyclohexyl)urea], the IC50 is less than 50 nM. As for `O=C(Nc1ccc(F)cc1F)N[C@H]1CC[C@H](c2ccnc3ccc(F)cc32)CC1` [Example 122, 1-(2,4-difluorophenyl)-3-(trans-4-(6-fluoroquinolin-4-yl)cyclohexyl)urea], the figure is less than 250 nM; as for `O=C(Nc1ccc(F)c(F)c1)N[C@H]1CC[C@H](c2ccnc3ccc(F)cc32)CC1` [Example 123, 1-(3,4-difluorophenyl)-3-(trans-4-(6-fluoroquinolin-4-yl)cyclohexyl)urea], less than 250 nM; as for `O=C(Nc1ccc(F)cc1)N[C@H]1CC[C@H](c2ccnc3ccc(F)cc32)CC1` [Example 124, 1-(4-fluorophenyl)-3-(trans-4-(6-fluoroquinolin-4-yl)cyclohexyl)urea], less than 50 nM. Take `O=C(Nc1ccc(Cl)cc1)N[C@H]1CC[C@@H](c2ccnc3ccc(F)cc32)CC1` [Example 125, 1-(4-Chlorophenyl)-3-(cis-4-(6-fluoroquinolin-4-yl)cyclohexyl)urea]: the IC50 was less than 250 nM. In the case of `Fc1ccc2nccc([C@H]3CC[C@H](NCc4ccccc4)CC3)c2c1` [Example 130, trans-N-Benzyl-4-(6-fluoroquinolin-4-yl)cyclohexanamine] it was less than 250 nM; in that of `Fc1ccc2nccc([C@H]3CC[C@@H](NCc4ccccc4)CC3)c2c1` [Example 131, cis-N-Benzyl-4-(6-fluoroquinolin-4-yl)cyclohexanamine], less than 250 nM. As for `O=C(O)Cc1ccc(CN[C@H]2CC[C@H](c3ccnc4ccc(F)cc43)CC2)cc1` [Example 139, 2-(4-(((trans-4-(6-Fluoroquinolin-4-yl)cyclohexyl)amino)methyl)phenyl)acetic acid], the figure is less than 2000 nM; as for `O=C(Cc1ccc(Cl)cc1)N[C@H]1CC[C@H](c2ccnc3ccc(F)cc32)CC1` [Example 144, 2-(4-Chlorophenyl)-N-(trans-4-(6-fluoroquinolin-4-yl)cyclohexyl)acetamide], less than 2000 nM. Regarding `CC(C(=O)N[C@H]1CC[C@H](c2ccnc3ccc(F)cc32)CC1)c1ccc(Cl)cc1` (stereo partly drawn) [Example 145, 2-(4-chlorophenyl)-N-(trans-4-(6-fluoroquinolin-4-yl)cyclohexyl)propanamide], the IC50 was less than 2000 nM. As for `O=C(N[C@H]1CC[C@H](c2ccnc3ccc(F)cc32)CC1)c1ccc(Cl)cc1` [Example 146, 4-chloro-N-(trans-4-(6-fluoroquinolin-4-yl)cyclohexyl)benzamide], the figure is less than 2000 nM; as for `O=C(Cc1ccc(Cl)cc1)N[C@H]1CC[C@@H](c2ccnc3ccc(F)cc32)CC1` [Example 147, 2-(4-chlorophenyl)-N-(cis-4-(6-fluoroquinolin-4-yl)cyclohexyl)acetamide], less than 2000 nM; as for `CC(C(=O)N[C@H]1CC[C@@H](c2ccnc3ccc(F)cc32)CC1)c1ccc(Cl)cc1` (stereo partly drawn) [Example 148, 2-(4-chlorophenyl)-N-(cis-4-(6-fluoroquinolin-4-yl)cyclohexyl)propanamide], less than 2000 nM.

Consider `O=C(N[C@H]1CC[C@@H](c2ccnc3ccc(F)cc32)CC1)c1ccc(Cl)cc1` [Example 149, 4-chloro-N-(cis-4-(6-fluoroquinolin-4-yl)cyclohexyl)benzamide], for which the IC50 was less than 250 nM. Regarding `Cc1cc(C2CCC(C(C)NC(=O)c3ccc(Cl)cc3)CC2)ccn1` (stereo not drawn) [Example 157a, 4-Chloro-N-(1-(4-(2-methylpyridin-4-yl)cyclohexyl)ethyl)benzamide], the IC50 is less than 250 nM. For `Cc1c(C2CCC(C(C)NC(=O)c3ccc(Cl)cc3)CC2)ccnc1F` (stereo not drawn) [Example 158a, 4-chloro-N-(1-(4-(2-fluoro-3-methylpyridin-4-yl)cyclohexyl)ethyl)benzamide], the IC50 was less than 50 nM. For `Cc1nccc(C2CCC(C(C)NC(=O)c3ccc(Cl)cc3)CC2)c1C` (stereo not drawn) [Example 159a, 4-chloro-N-(1-(4-(2,3-dimcthylpyridin-4-yl)cyclohexyl)ethyl)benzamide], the IC50 is less than 50 nM. In the case of `Cc1cnccc1C1CCC(C(C)NC(=O)c2ccc(Cl)cc2)CC1` (stereo not drawn) [Example 160a, 4-chloro-N-(1-(4-(3-methylpyridin-4-yl)cyclohexyl)ethyl)benzamide] it was less than 50 nM.

As for `CCOc1ccc(C(=O)N[C@H](C)[C@H]2CC[C@@H](c3ccnc4ccc(F)cc43)CC2)nc1` [Example 163, 5-Ethoxy-N—((R)-1-(cis-4-(6-fluoroquinolin-4-yl)cyclohexyl)ethyl)picolinamide], the IC50 was less than 50 nM.
